Laboratory results: patent publication US6255502A, “Pharmaceutical composition containing acid addition salt of basic drug” (Farmarc Nederland B.V., priority 1996, dated 2001)
Converted amounts (≈) assume the structure as drawn.

Legend:
[1] = by forming a complex with a fatty acid; cited from earlier work
[2] = dogs, sustained-release oral formulation study; cited from earlier work
[3] = providing an appropriate pH gradient existed; cited from earlier work
[4] = cited from earlier work
[5] = Aqueous solubility (stated in the Examples); type: physicochemical; conditions: aqueous solution
[6] = Partition coefficient and apparent partition coefficient, n-octanol / phosphate buffer pH 7.4 at 25° C.; type: physicochemical; conditions: n-octanol / phosphate buffer pH 7.4, 25° C.; for Partition Coefficient: P = Co/Cw; for Apparent Partition Coefficient: Papp=P/(1+10^pKa-pH)
Experimental: Melting points (peak onset temperature) were determined by Differential Scanning Calorimetry using a Perkin Elmer DSC 7. The saturation solubilities were determined by shaking an excess of the compound in phosphate buffer pH 7.4 at 25° C. […] Pharmaceutical Press p70]:
where P=Co /Cw and where Co is the concentration of the drug in n-octanol and Cw is the concentration of the drug in phosphate buffer pH 7.4 at 25° C. Drug concentrations were determined by HPLC.

[7] = Deliquescence of precipitate on standing; type: physicochemical
[8] = Thermal decomposition seen in differential scanning calorimetry; type: physicochemical; conditions: DSC from 50 to 200° C.
Experimental: Salbutamol base (1.2007 g; 5.02 mmol) was dissolved in ethanol (100 mL) with vigorous stirring. Glycodeoxycholic acid (2.4601 g; water content: 4.25% w/w; 5.25 mmol~5% molar excess) was added and dissolved with stirring. A clear, colourless solution was obtained. The ethanol was removed by vacuum rotary-evaporation to give a viscous, yellow residue. Ethyl acetate (200 mL) was added to the residue and the mixture heated in a water bath with constant agitation. As the yellow residue dissolved, a white precipitate formed. Agitation was continued until the yellow residue disappeared. The ethyl acetate solution was cooled in an ice bath. […] Analysis by differential scanning calorimetry from 50 to 200° C. gave no significant thermal event. Slow decomposition was evident after 110° C.

Question: For `CC(C)NCC(O)COc1cccc2ccccc12` (stereo not drawn) [propranolol], which “Penetration across the stratum corneum” value [1] is on record?
Answer: a significant proportion of propranolol will penetrate across the stratum corneum

Question: For `CC(C)NCC(O)COc1cccc2ccccc12` (stereo not drawn) [propranolol laurate], which bioavailability [2] is on record?
Answer: An increase in bioavailability was observed

Question: With `CCCCCCCC/C=C\CCCCCCCC(=O)O` [oleic acid] as the compound, how does the “Transport of cations across an iso-Pr myristate membrane” value [3] read?
Answer: facilitated

Question: Which “Transport of cations across an iso-Pr myristate membrane” value [3] does the source give for `CCCCCCCCCCCC(=O)O` [lauric acid] here?
Answer: facilitated

Question: Which “effect on rat nasal absorption of insulin” value (shortened to “effect”) [4] does the source give for `CCCCCCCCCCCC(=O)[O-].[Na+]` [sodium laurate] here?
Answer: promoting effect

Question: For `CC(C)(C)NCC(O)c1ccc(O)c(CO)c1` (stereo not drawn) [Salbutamol caprate], which solubility ([5]; water) is on record?
Answer: 4760 µg/mL (≈ 19.9 mM)

Question: And the “Partition Coefficient” value [6]?
Answer: 0,54

Question: What about the “Apparent Partition Coefficient” value [6] of the same compound?
Answer: 0,006714

Question: With `CCCCCCCCCC(=O)[O-].[Na+]` [sodium caprate] as the compound, how does the “effect” value [4] read?
Answer: promoting effect

Question: With `COc1ccc2c3c1O[C@H]1[C@@H](O)C=C[C@H]4[C@@H](C2)N(C)CC[C@@]341` [Codeine caprate, codeine caprate] as the compound, how does the Deliquescence [7] read?
Answer: very deliquescent

Question: For `CC(C)(C)NCC(O)c1ccc(O)c(CO)c1` (stereo not drawn) [Salbutamol glycodeoxycholate, salbutamol glycodeoxycholate], which “Slow decomposition evident after” value [8] is on record?
Answer: > 110 °C

Question: And the Aqueous solubility [5]?
Answer: greater than 8.35 mg/mL

Question: And the “Partition Coefficient” value [6]?
Answer: 0,61

Question: And the “Apparent Partition Coefficient” value [6]?
Answer: 0,007584

Question: Which “Partition Coefficient” value [6] does the source give for `CNS(=O)(=O)Cc1ccc2[nH]cc(CCN(C)C)c2c1` [Sumatriptan caprate, sumatriptan caprate] here?
Answer: 1,54

Question: What about the “Apparent Partition Coefficient” value [6] of the same compound?
Answer: 0.009015

Question: Which “Partition Coefficient” value [6] does the source give for `CC(C)(C)NCC(O)c1ccc(O)c(CO)c1` (stereo not drawn) [Salbutamol base] here?
Answer: 0,42

Question: And the “Apparent Partition Coefficient” value [6]?
Answer: 0.005222

Question: For `CCCCCCCC(=O)[O-].[Na+]` [sodium caprylate], which “effect” value [4] is on record?
Answer: promoting effect

Question: Which results are given for `CNS(=O)(=O)Cc1ccc2[nH]cc(CCN(C)C)c2c1` [Sumatriptan base]?
Answer: Partition Coefficient [6]: 0,69; Apparent Partition Coefficient [6]: 0,004039
